The nature of series [1]: Ester metabolism stabilization test: human liver stabilization test. Type of series: in vitro ADME. The following applies: human liver S9 with NADPH, 37°C, 30 minutes. The method, then:
A reaction solution prepared by mixing 5 µL of human liver S9 (manufactured by Xenotech, 20 mg/mL), 20 µL of 500 mmol/L Kpi (pH7.4), 40 µL of 5 mmol/L NADPH (manufactured by Oriental Yeast Co., Ltd.) aqueous solution, and 133 µL of ion exchange water was added to 2 µL of a DMSO solution containing 100 µmol/L test substance, and the thus obtained mixture was then incubated at 37°C for 30 minutes. After completion of the incubation, 600 µL of acetonitrile was added to the reaction solution, so that the metabolic reaction was terminated. The residual percentage of the test substance was measured using LC (LC-20A manufactured by Shimadzu Corporation) and -MS (API4000 manufactured by AB Sciex).

The nature of series [2]: Ester metabolism stabilization test: stabilization in human plasma test. It counts as in vitro ADME. The following applies: 37°C, 30 minutes. As to the method: 198 µL of human plasma (manufactured by Cosmo Bio) was added to 2 µL of a DMSO solution containing 100 µmol/L test substance, and the obtained mixture was then incubated at 37°C for 30 minutes. After completion of the incubation, 600 µL of acetonitrile was added to the reaction solution, so that the metabolic reaction was terminated. The residual percentage of the test substance was measured using LC (LC-20A manufactured by Shimadzu Corporation) and -MS (API4000 manufactured by AB Sciex).

The target in another series is human FXIa (Homo sapiens, UniProt P03951). Briefly: In vitro activated factor XI (FXIa) inhibition test. It counts as biochemical. As to the method: To the substrate, S-2366 (pyroGlu-Pro-Arg-pNA•HCl) was added to a final concentration of 300 µmol/L. After the reaction had progressed, the absorbance at OD 405 nm was measured. […]
Series [3] deals with endogenous coagulation pathway. Kind of series: Activated partial thromboplastin time (aPTT) of blood sample from the rabbit venous thrombus test. Type of series: in vivo. The following applies: i.v.; for aPTT: blood collected 2 minutes after administration. The method, then:
In order to measure the activated partial thromboplastin time (aPTT) of the blood sample, which was to be used as an indicator of an endogenous coagulation pathway, 2 minutes after the administration of the test agent or the vehicle, blood was collected, and plasma was then prepared using 3.2% sodium citrate. The prepared plasma was incubated at 37°C for 7 minutes, and an STA reagent Cephascreen (used for aPTT measurement; manufactured by Roche Diagnostics) was added in an equal amount to the resulting plasma, and the obtained mixture was further incubated for 3 minutes. Thereafter, STA calcium chloride (manufactured by Roche Diagnostics) was added in an equal amount to the resultant, and the time required until coagulation was then measured.

Series [4] deals with rabbit model with venous thrombus. Kind of series: Rabbit in vivo antithrombotic action evaluation test (venous thrombus model, thrombus weight). The following applies: i.v. An excerpt:
A rabbit model with venous thrombus was produced by modifying the report of Wienen et al. (Wienen W. et al., J. Thromb. Haemost. 5:1237-1242 (2007)). A male rabbit (JW, 2-4 kg) was narcotized by inhalation of isoflurane (ISOFLU®, manufactured by DS Pharma Animal Health) (inductive anesthesia: 4%, continuous anesthesia: 1.5% to 2.5%). For intravenous administration of a test agent and blood collection, catheters were inserted into the left femoral vein and the left femoral artery. The left external jugular vein was exposed (2 cm) from a branch of the facial vein, the microvascular branch was then ligated, and a catheter was then inserted into the posterior facial vein. The external jugular vein (2 cm) exposed from each of an anterior facial vein branch and a facial vein branch was ligated with an artery clamp, and blood was then removed from a catheter left in the posterior facial vein. Blood in the blood vessel was washed with a normal saline, and 0.5% polidocanol (manufactured by Sigma) was injected into the blood vessel. It was then left for 5 minutes, so that the occurrence of a disorder in vascular endothelium was provoked. Thereafter, 0.5% polidocanol was removed, the inside of the blood vessel was then washed with a normal saline, and the artery clamp was then removed. The external jugular vein (2 cm) exposed from the facial vein branch, together with an injection needle 21G (manufactured by Terumo), was ligated with a silk thread, so that the inner diameter of the blood vessel was reduced to 0.8 mm. Twenty-five minutes after recirculation of the blood flow, the external jugular vein (2cm) exposed from the facial vein branch was excised, and the wet weight and dry weight of a thrombus formed in the blood vessel were measured. A test agent or a vehicle was administered to the rabbit 2 minutes before recirculation of the blood flow.

The mark [5] stands for this setting: 0.35 µg/mL human FXIa, substrate S-2366 300 µmol/L, 37°C, 10 minutes, OD 405 nm, read-out: FXIa inhibitory activity IC50.

Read-outs that look alike come from different tables or passages of the source.

human FXIa, sequence (P03951 388-625 limits assumed): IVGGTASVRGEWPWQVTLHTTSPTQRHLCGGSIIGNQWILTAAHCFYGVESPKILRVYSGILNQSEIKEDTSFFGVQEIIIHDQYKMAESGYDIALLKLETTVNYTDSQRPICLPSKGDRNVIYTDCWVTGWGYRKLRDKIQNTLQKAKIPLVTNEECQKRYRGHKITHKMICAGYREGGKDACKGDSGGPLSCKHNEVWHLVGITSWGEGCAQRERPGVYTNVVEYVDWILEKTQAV
human FXIa, sequence (P03951 19-387 partner limits assumed): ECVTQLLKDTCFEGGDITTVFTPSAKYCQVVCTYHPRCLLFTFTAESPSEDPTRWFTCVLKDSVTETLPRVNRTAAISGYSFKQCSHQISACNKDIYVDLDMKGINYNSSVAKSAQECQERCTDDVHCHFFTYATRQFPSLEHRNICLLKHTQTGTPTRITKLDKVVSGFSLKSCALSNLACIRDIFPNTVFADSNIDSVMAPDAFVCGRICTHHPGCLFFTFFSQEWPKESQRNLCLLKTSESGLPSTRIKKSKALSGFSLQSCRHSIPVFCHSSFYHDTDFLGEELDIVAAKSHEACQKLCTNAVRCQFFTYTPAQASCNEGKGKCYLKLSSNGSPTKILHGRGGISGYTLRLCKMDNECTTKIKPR

For the compound `CCC(=O)OC(OC(=O)c1cc2cc(NC(=O)[C@@H]3[C@@H](c4ccccc4)CCN3C(=O)[C@H]3CC[C@H]([C@H](N)CF)CC3)ccc2[nH]1)C(C)C` (stereo partly drawn) [compound 125], the “Residual percentage (%) Human liver S9” value in series [1] amounted to 5.6%. For the same compound, the “Residual percentage (%) Human plasma” value in series [2] is recorded as 86%.
In the case of `CC(OC(=O)OC1CCCCC1)OC(=O)c1cc2cc(NC(=O)[C@@H]3[C@@H](c4ccccc4)CCN3C(=O)[C@H]3CC[C@H]([C@H](N)CF)CC3)ccc2[nH]1` (stereo partly drawn) [compound 120], in series [1], the “Residual percentage (%) Human liver S9” value stood at 4.9%. The “Residual percentage (%) Human plasma” value in series [2] turned out to be 65%.
The term IC50 denotes the concentration at which inhibition is half-maximal. On to `N[C@H](CF)[C@H]1CC[C@H](C(=O)N2CC[C@@H](C3CCCCC3)[C@H]2C(=O)Nc2ccc3oc(C(=O)OCC4CCOCC4)cc3c2)CC1` [compound 141], for which the “Residual percentage (%) Human liver S9” value in series [1] worked out at 17%. At human FXIa, this compound yielded an IC50 of 3450 nM. Moreover, the “Residual percentage (%) Human plasma” value in series [2] was determined as 94%.
Consider `CC(C)OC(=O)OC(C)OC(=O)c1cc2cc(NC(=O)[C@@H]3[C@H](C4CCCCC4)CCN3C(=O)[C@H]3CC[C@H]([C@H](N)CF)CC3)ccc2[nH]1` (stereo partly drawn) [compound 128], for which the “Residual percentage (%) Human liver S9” value in series [1] was determined as 47%. The “Residual percentage (%) Human plasma” value in series [2] worked out at 82%.
On to `N[C@H](CF)[C@H]1CC[C@H](C(=O)N2CCC(C3CCCCC3)[C@H]2C(=O)Nc2ccc3oc(C(=O)O)cc3c2)CC1` (single isomer, unassigned) [compound 53], for which the midpoint of inhibition against human FXIa, the IC50, lay at 34 nM. In addition, the “aPTT (% vehicle)” value in series [3] (dose 0.1 mg/kg) was 103%; in series [3] (dose 0.3 mg/kg), 117%; in series [3] (dose 1.0 mg/kg), 140%; in series [3] (dose 3.0 mg/kg) it was 166%. In addition, the “aPTT” value in series [3] (dose 0.1 mg/kg) came out at 17.8 s; in series [3] (dose 0.3 mg/kg) it was 20.3 s; in series [3] (dose 1.0 mg/kg), 24.2 s; in series [3] (dose 3.0 mg/kg) it was 28.8 s. The “Thrombus (% inhibition)” value was 25% in series [4] (dose 0.1 mg/kg), 56% in series [4] (dose 0.3 mg/kg), 79% in series [4] (dose 1.0 mg/kg) and 80% in series [4] (dose 3.0 mg/kg). In addition, the “Thrombus weight” value in series [4] (dose 0.1 mg/kg) was determined as 51.3 mg; in series [4] (dose 0.3 mg/kg), 30.3 mg; in series [4] (dose 1.0 mg/kg), 14.7 mg; in series [4] (dose 3.0 mg/kg), 14.0 mg.
As to `COCCCOC(=O)c1cc2cc(NC(=O)[C@@H]3[C@H](C4CCCCC4)CCN3C(=O)[C@H]3CC[C@H]([C@H](N)CF)CC3)ccc2o1` [compound 82], in series [1], the “Residual percentage (%) Human liver S9” value is listed as 5.8%. Also, the “Residual percentage (%) Human plasma” value in series [2] stood at 92%.
On to `Cc1oc(=O)oc1COC(=O)c1cc2cc(NC(=O)[C@@H]3[C@@H](c4ccccc4)CCN3C(=O)[C@H]3CC[C@H]([C@H](N)CF)CC3)ccc2[nH]1` [compound 171], for which, in series [1], the “Residual percentage (%) Human liver S9” value worked out at 18%. At human FXIa (setting [5]), the concentration for half-maximal inhibition (IC50) is 300 nM. The “Residual percentage (%) Human plasma” value in series [2] is <1%.
On to “(1R)-1-([(1S)-1-(trans-4-{[(2S,3S)-3-Cyclohexyl-2-{[4-(1H-tetrazol-5-yl)phenyl]carbamoyl}pyrrolidin-1-yl]carbonyl}cyclohexyl)-2-fluoroethyl]carbamoyl}oxy)ethyl 2-methylpropanoate [Example 205]”, for which the “Residual percentage (%) Human liver S9” value in series [1] came out at 3.5%. In series [2], the “Residual percentage (%) Human plasma” value is 60%.
In the case of `COC1CCC([C@@H]2CCN(C(=O)[C@H]3CC[C@H]([C@H](N)CF)CC3)[C@@H]2C(=O)Nc2ccc3oc(C(=O)OCC(C)C)cc3c2)CC1` (stereo partly drawn) [compound 201], in series [1], the “Residual percentage (%) Human liver S9” value is listed as 45%. The 50% inhibitory concentration (IC50) at human FXIa (setting [5]) was 4100 nM. Further, the “Residual percentage (%) Human plasma” value in series [2] was 85%.

Values taken from patent EP2876105A1, “1-(CYCLOALKYL-CARBONYL)PROLINE DERIVATIVE” (Sumitomo Dainippon Pharma Co., Ltd., priority 2012, dated 2014).
